This is an account of results in patent US20250275959A1, “COMPOUNDS AND METHODS OF THEIR USE” (LEXICON PHARMACEUTICALS, INC., priority 2024, published 2025).

The target of assay [1] is T1, hACSL5 (Homo sapiens (Human), UniProt Q9ULC5). Nature of the assay: Cell-based assay (CBA) with B12FA in hACSL5-transfected Expi293F / FlpIn TRex293 cells. The conditions noted are these: hACSL5-expressing cells. The text has this: To assess the cell penetration and cellular activity of the compounds, a cell-based assay (CBA) was used to detect compound potency in living cells. The assay utilized the fluorescent fatty acid analogue B12FA, a boron-dipyrromethene (BODIPY™) labelled C12 fatty acid that can be incorporated into glycerophosphocholine in the cytoplasmic oil droplets of live cells. A concentration-dependent, red-shifted fluorescence can be induced by the formation of BODIPY™ excimers in the oil droplets.
Expi293F cells transfected with full length hACSL5 plasmid were selected using 1 mg/mL G418 culture medium and clones were selected by in vitro whole cell lysate (WCL) assay. The cell passage number used in the Expi293 CBA assay could not be used beyond 10 passages due to a decrease in hACSL5 expression. Therefore, a CBA using FlpIn TRex293 cells for inducible expression of hACSL5 was also established.
FlpIn TRex293 cells transfected with hACSL5 plasmid were selected in culture medium containing 15 µg/ml Blasticidin and 150 µg/ml Hygromycin. For cell-based assays, stable transfected hACSL5 cells were seeded onto a 96-well plate at 30-50k/well and incubated overnight. For the inducible system, […] tetracycline (or doxycycline) was added to culture medium of FlpIn TRex293 hACSL5 cells on the day before the assay to induce expression of hACSL5. The next day, growth media was replaced with culture medium without FBS and glucose (DMEM glucose (-), ThermoFisher) and cells were incubated for an hour before treating cells with serial diluted compounds containing 20 µM B12FA (ThermoFisher) for another 3 hours in the above medium. Cells were then fixed in 4% formaldehyde for 10 minutes and washed twice with PBS. The plate was read using the Cytation 5 imaging system with an excitation wavelength of 485 nm and observed emissions at 630 nm and 520 nm. The percentage of inhibition was calculated as: […]
wherein A is the ratio of emission intensities at 630 nm/520 nm in the absence of inhibitor (maximum ratio); B is the ratio of the intensities at those wavelengths in the presence of […] of the test compound or non-induced cells (minimum ratio); and X is the ratio of the intensities at a given compound concentration.
Concentration-response titration points for each compound tested were filled to the Hill equation yielding concentrations of half maximal inhibition […] and maximal inhibition values.
Target sequence in this assay (Q9ULC5 whole entry): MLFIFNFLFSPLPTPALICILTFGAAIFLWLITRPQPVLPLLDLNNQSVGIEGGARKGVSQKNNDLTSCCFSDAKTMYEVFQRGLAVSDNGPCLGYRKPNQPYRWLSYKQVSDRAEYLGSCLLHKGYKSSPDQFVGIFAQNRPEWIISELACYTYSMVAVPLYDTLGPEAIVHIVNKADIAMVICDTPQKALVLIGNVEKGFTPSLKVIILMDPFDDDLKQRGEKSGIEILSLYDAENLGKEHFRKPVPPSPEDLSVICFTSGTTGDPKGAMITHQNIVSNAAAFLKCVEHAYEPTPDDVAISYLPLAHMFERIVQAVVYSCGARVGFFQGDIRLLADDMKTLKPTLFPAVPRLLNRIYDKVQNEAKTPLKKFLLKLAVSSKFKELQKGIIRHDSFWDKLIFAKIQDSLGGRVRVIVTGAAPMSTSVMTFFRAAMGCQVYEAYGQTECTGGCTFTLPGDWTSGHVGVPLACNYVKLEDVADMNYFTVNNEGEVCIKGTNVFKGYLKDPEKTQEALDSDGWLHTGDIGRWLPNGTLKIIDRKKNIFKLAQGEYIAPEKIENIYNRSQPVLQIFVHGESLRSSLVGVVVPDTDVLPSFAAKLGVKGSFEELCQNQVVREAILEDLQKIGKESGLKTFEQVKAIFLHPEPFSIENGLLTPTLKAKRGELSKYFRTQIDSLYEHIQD

In assay [2] the target is T1, hACSL5. As to the kind of experiment: Human ACSL5 coupled enzyme Amplex Red assay. In kind it is biochemical. The conditions noted are these: read-out: hACSL5 IC50. The gist of the method:
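C-terminally His-tagged ACSL5 (33-683) from sf9 cells, 20 nM, was preincubated with compound in MOPS-NaOH pH 7.6 with MgCl2, peroxidase and acyl-CoA oxidase. Reactions were started with 25 μM oleate, 30 μM CoA, 1 mM ATP and 50 μM Amplex Red; fluorescence (535/590 nm) after 10 minutes at 25° C. was fitted to the Hill equation for IC50 and maximal inhibition.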
Target sequence in this assay (Q9ULC5 33-683): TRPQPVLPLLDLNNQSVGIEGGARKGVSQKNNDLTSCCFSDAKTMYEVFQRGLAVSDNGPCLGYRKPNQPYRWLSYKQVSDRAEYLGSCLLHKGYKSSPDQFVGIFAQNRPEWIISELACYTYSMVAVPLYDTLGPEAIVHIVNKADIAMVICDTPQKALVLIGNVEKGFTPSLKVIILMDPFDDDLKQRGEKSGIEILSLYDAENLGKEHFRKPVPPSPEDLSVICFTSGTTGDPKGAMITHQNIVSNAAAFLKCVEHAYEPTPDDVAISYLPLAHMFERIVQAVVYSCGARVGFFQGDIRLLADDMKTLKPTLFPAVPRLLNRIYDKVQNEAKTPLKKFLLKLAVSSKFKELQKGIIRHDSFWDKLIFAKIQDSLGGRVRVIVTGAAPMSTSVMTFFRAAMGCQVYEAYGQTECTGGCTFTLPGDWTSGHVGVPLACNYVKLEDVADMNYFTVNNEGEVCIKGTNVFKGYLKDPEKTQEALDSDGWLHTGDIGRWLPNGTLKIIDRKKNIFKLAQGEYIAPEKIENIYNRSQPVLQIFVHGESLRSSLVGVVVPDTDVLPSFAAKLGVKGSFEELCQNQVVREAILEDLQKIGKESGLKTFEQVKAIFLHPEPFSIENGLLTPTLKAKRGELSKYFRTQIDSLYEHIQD

As a reminder, the IC50 is the concentration that inhibits the measured activity by half. For `CC[C@@H](Oc1ccc(C(=O)NS(=O)(=O)N2CCN(CC3CC3)CC2)c(F)c1F)c1ccc(Oc2ccccn2)cn1` [(R)-N-((4-(cyclopropylmethyl)piperazin-1-yl)sulfonyl)-2,3-difluoro-4-(1-(5-(pyridin-2-yloxy)pyridin-2-yl)propoxy)benzamide], the IC50 in assay [1] and in assay [2] was less than 100 nM in each case.

With `CC[C@@H](Oc1ccc(C(=O)NS(=O)(=O)N2CCC(OC3CCN(CCOC)CC3)CC2)c(F)c1F)c1ccc(OCC2CC2)cn1` [(R)-4-(1-(5-(cyclopropylmethoxy)pyridin-2-yl)propoxy)-2,3-difluoro-N-((4-((1-(2-methoxyethyl)piperidin-4-yl)oxy)piperidin-1-yl)sulfonyl)benzamide], the IC50 in assay [1] and in assay [2] was less than 100 nM in each case.

For the molecule `CC[C@@H](Oc1ccc(C(=O)NS(=O)(=O)N2CC3CC(C2)N3C)c(F)c1F)c1ccc(OCC2CC2)cn1` [4-((R)-1-(5-(cyclopropylmethoxy)pyridin-2-yl)propoxy)-2,3-difluoro-N-((6-methyl-3,6-diazabicyclo[3.1.1]heptan-3-yl)sulfonyl)benzamide], the IC50 in assay [1] and in assay [2] was less than 100 nM throughout.

Consider `CC[C@@H](Oc1ccc(C(=O)NS(=O)(=O)N2CCN(C)CC2)c(F)c1F)c1ccc(OCC2CC2)cn1` [(R)-4-(1-(5-(cyclopropylmethoxy)pyridin-2-yl)propoxy)-2,3-difluoro-N-((4-methylpiperazin-1-yl)sulfonyl)benzamide], for which the IC50 in assay [1] and in assay [2] was less than 100 nM in each case.

As to `CC[C@@H](Oc1ccc(C(=O)NS(=O)(=O)N2CCC(OCCN(C)C)CC2)c(F)c1F)c1ccc(OCC2CC2)cn1` [(R)-4-(1-(5-(cyclopropylmethoxy)pyridin-2-yl)propoxy)-N-((4-(2-(dimethylamino)ethoxy)piperidin-1-yl)sulfonyl)-2,3-difluorobenzamide], the IC50 in assay [1] was 100 to 500 nM; in assay [2] it was less than 100 nM.

As to `CC[C@@H](Oc1ccc(C(=O)NS(=O)(=O)c2ccc(OCCN(C)C)cc2)c(F)c1F)c1ccc(OCCOC)cn1` [(R)-N-((4-(2-(dimethylamino)ethoxy)phenyl)sulfonyl)-2,3-difluoro-4-(1-(5-(2-methoxyethoxy)pyridin-2-yl)propoxy)benzamide], the IC50 is more than 500 nM in assay [1] and 100 to 500 nM in assay [2].

As to `CC[C@@H](Oc1ccc(C(=O)NS(=O)(=O)C(C)(C)CN(C)C)c(F)c1F)c1ccc(Oc2ccccn2)cn1` [(R)-N-((1-(dimethylamino)-2-methylpropan-2-yl)sulfonyl)-2,3-difluoro-4-(1-(5-(pyridin-2-yloxy)pyridin-2-yl)propoxy)benzamide], the half-maximal inhibitory concentration (IC50) in assay [1] and in assay [2] was less than 100 nM each time.

Consider `CC(Oc1ccc(C(=O)NS(=O)(=O)c2cnn(CCN(C)C)c2)c(F)c1F)c1cccc(OCC2CC2)c1` (stereo not drawn) [4-(1-(3-(cyclopropylmethoxy)phenyl)ethoxy)-N-((1-(2-(dimethylamino)ethyl)-1H-pyrazol-4-yl)sulfonyl)-2,3-difluorobenzamide], for which the IC50 is more than 500 nM in assay [1] and 100 to 500 nM in assay [2].

For the molecule `CC[C@@H](Oc1ccc(C(=O)NS(=O)(=O)N2CCN(C)[C@@H](C)C2)c(F)c1F)c1ccc(OCC2CC2)cn1` [4-((R)-1-(5-(cyclopropylmethoxy)pyridin-2-yl)propoxy)-N-(((S)-3,4-dimethylpiperazin-1-yl)sulfonyl)-2,3-difluorobenzamide], the IC50 in assay [1] and in assay [2] was less than 100 nM each time.

On to `CC[C@@H](Oc1ccc(C(=O)NS(=O)(=O)N2CCN(C)CC2)c(F)c1F)c1ccc(OC2CC(OC(F)F)C2)cn1` (stereo partly drawn) [4-((R)-1-(5-((1R,3R)-3-(difluoromethoxy)cyclobutoxy)pyridin-2-yl)propoxy)-2,3-difluoro-N-((4-methylpiperazin-1-yl)sulfonyl)benzamide], for which the IC50 in assay [1] and in assay [2] was 100 to 500 nM in each case.

For the molecule `CC[C@@H](Oc1ccc(C(=O)NS(=O)(=O)N2CCC(OC3CCN(C)CC3)CC2)c(F)c1F)c1ccc(Oc2ccccn2)cn1` [(R)-2,3-difluoro-N-((4-((1-methylpiperidin-4-yl)oxy)piperidin-1-yl)sulfonyl)-4-(1-(5-(pyridin-2-yloxy)pyridin-2-yl)propoxy)benzamide], the concentration for half-maximal inhibition (IC50) in assay [1] and in assay [2] was less than 100 nM in each case.

Turning to `CC[C@@H](Oc1ccc(C(=O)NS(=O)(=O)c2ccc(OCCN3CCN(C)CC3)cc2)c(F)c1F)c1ccc(OCC2CC2)cn1` [(R)-4-(1-(5-(cyclopropylmethoxy)pyridin-2-yl)propoxy)-2,3-difluoro-N-((4-(2-(4-methylpiperazin-1-yl)ethoxy)phenyl)sulfonyl)benzamide], the IC50 in assay [1] is 100 to 500 nM; in assay [2], less than 100 nM.

Regarding `CC[C@@H](Oc1ccc(C(=O)NS(=O)(=O)c2ccc(OC3CCN(CCOC)CC3)cc2)c(F)c1F)c1ccc(OCC2CC2)cn1` [(R)-4-(1-(5-(cyclopropylmethoxy)pyridin-2-yl)propoxy)-2,3-difluoro-N-((4-((1-(2-methoxyethyl)piperidin-4-yl)oxy)phenyl)sulfonyl)benzamide], the half-inhibitory concentration (IC50) in assay [1] and in assay [2] was less than 100 nM in each case.

Regarding `CC[C@@H](Oc1ccc(C(=O)NS(=O)(=O)c2ccc(OCCN3CCCC3)nn2)c(F)c1F)c1ccc(OCC2CC2)cn1` [(R)-4-(1-(5-(cyclopropylmethoxy)pyridin-2-yl)propoxy)-2,3-difluoro-N-((6-(2-(pyrrolidin-1-yl)ethoxy)pyridazin-3-yl)sulfonyl)benzamide], the IC50 in assay [1] is more than 500 nM; in assay [2], less than 100 nM.

Consider `[2H]C([2H])([2H])N1CCC(Oc2ccc(S(=O)(=O)NC(=O)c3ccc(O[C@H](CC)c4ccc(OCC5CC5)cn4)c(F)c3F)cc2)CC1` [(R)-4-(1-(5-(cyclopropylmethoxy)pyridin-2-yl)propoxy)-2,3-difluoro-N-((4-((1-(methyl-d3)piperidin-4-yl)oxy)phenyl)sulfonyl)benzamide], for which the IC50 in assay [1] and in assay [2] was less than 100 nM in each case.

In the case of `CC[C@@H](Oc1ccc(C(=O)NS(=O)(=O)c2ccc(OC3CCN(CC4CC4)CC3)cc2)c(F)c1F)c1ccc(OCC2CC2)cn1` [(R)-4-(1-(5-(cyclopropylmethoxy)pyridin-2-yl)propoxy)-N-((4-((1-(cyclopropylmethyl)piperidin-4-yl)oxy)phenyl)sulfonyl)-2,3-difluorobenzamide], the IC50 in assay [1] and in assay [2] was less than 100 nM each time.

Turning to `CC[C@@H](Oc1ccc(C(=O)NS(=O)(=O)N2CCN(C)CC2)cc1C(F)(F)F)c1ccc(OCC2CC2)cn1` [(R)-4-(1-(5-(cyclopropylmethoxy)pyridin-2-yl)propoxy)-N-((4-methylpiperazin-1-yl)sulfonyl)-3-(trifluoromethyl)benzamide], the IC50 in assay [1] and in assay [2] was less than 100 nM each time.

For the molecule `CC[C@@H](Oc1ccc(C(=O)NS(=O)(=O)c2ccc(OC3CCN(C)CC3)cc2)c(F)c1F)c1cc(OCC2CC2)ccn1` [(R)-4-(1-(4-(cyclopropylmethoxy)pyridin-2-yl)propoxy)-2,3-difluoro-N-((4-((1-methylpiperidin-4-yl)oxy)phenyl)sulfonyl)benzamide], the IC50 in assay [1] and in assay [2] was 100 to 500 nM throughout.

As to `CC[C@@H](Oc1ccc(C(=O)NS(=O)(=O)N2CCC(OC3CCN(C)CC3)CC2)c(F)c1F)c1ccc(OCC2CC2)cn1` [(R)-4-(1-(5-(cyclopropylmethoxy)pyridin-2-yl)propoxy)-2,3-difluoro-N-((4-((1-methylpiperidin-4-yl)oxy)piperidin-1-yl)sulfonyl)benzamide], the half-maximal inhibitory concentration (IC50) is 100 to 500 nM in assay [1] and less than 100 nM in assay [2].

Consider `CC[C@@H](Oc1ccc(C(=O)NS(=O)(=O)c2ccc(OC3CCN(C)C(C)(C)C3)cc2)c(F)c1F)c1ccc(OCC2CC2)cn1` (stereo partly drawn) [4-((R)-1-(5-(cyclopropylmethoxy)pyridin-2-yl)propoxy)-2,3-difluoro-N-((4-((1,2,2-trimethylpiperidin-4-yl)oxy)phenyl)sulfonyl)benzamide], for which the IC50 was 100 to 500 nM in assay [1] and less than 100 nM in assay [2].

For `CC[C@@H](Oc1ccc(C(=O)NS(=O)(=O)N2CCN(CC(C)(C)O)CC2)c(F)c1F)c1ccc(Oc2ccccn2)cn1` [(R)-2,3-difluoro-N-((4-(2-hydroxy-2-methylpropyl)piperazin-1-yl)sulfonyl)-4-(1-(5-(pyridin-2-yloxy)pyridin-2-yl)propoxy)benzamide], the IC50 in assay [1] and in assay [2] was less than 100 nM each time.
